Patent publication US4737583A, “Anthracyclin derivatives” (priority 1983, dated 1988)
≈ marks a conversion by molar mass, not a printed value. Where two headings read alike, the source gives them in different places.

Experiments:
[1] = solubility (description of the substance)
L1210 leukemia cells = assay: cell proliferation test, incorporation of C14-thymidine into DNA of L1210 leukemia cells; format: cell-based; settings: Mus musculus
Method: The cytorhodins according to the invention are distinguished by a powerful cytostatic activity and gave the following action on L1210 leukemia cells in the cell proliferation test:
The inhibiting action is determined as follows (cell proliferation test):
L1210 cells in the exponential growth phase (5×10^3 /ml in RPMI 1640) are incubated with various concentrations of the test substance in a microtiter plate for 72 hours (37° C., 5% of CO2, 95% relative atmospheric humidity). Controls comprise cells which are incubated only with fresh medium. All the determinations are carried out as quadruplicate determinations. After 65 hours, 50 μl of C14-thymidine (1.5 μC/ml) are added in order to radioactively label the DNA of the cells. After incubation for 7 hours, the cells are filtered off with suction and the DNA is precipitated with 5% strength trichloroacetic acid and washed successively with water and methanol. After drying at 50° C., the radioactivity incorporated into the DNA is determined, after addition of 5 ml of scintillation liquid. The results are given as the relationships of the scintillation index after incubation with test substance in percent of the untreated control. […]

Compound | solubility in methanol, ethyl acetate, chloroform and toluene [1] | solubility in water and hexane [1] | IC50 (L1210 leukemia cells; L1210, 72 h) [ng/mL] | IC50 (L1210 leukemia cells; L1210 leukemia cells, 72 hours, 37° C., incorporation of radioactive thymidine reduced by 50% compared with the control, read-out: IC50) [ng/mL]
CCC1(O)CC(OC2CC(N(C)C)C(O)C(C)O2)c2c(O)c3c(c(O)c2C1OC1CC(N(C)C)C(OC2CC4OC5CC(=O)C(C)OC5OC4C(C)O2)C(C)O1)C(=O)c1cccc(O)c1C3=O (stereo not drawn) [Cytorhodin T] | readily soluble | insoluble | 2 (≈ 2.13 nM) | –
CCC1(O)CC(OC2CC(N(C)C)C(OC3CC4OC5CC(=O)C(C)OC5OC4C(C)O3)C(C)O2)c2c(O)c3c(c(O)c2C1OC1CC(N(C)C)C(O)C(C)O1)C(=O)c1cccc(O)c1C3=O (stereo not drawn) [Cytorhodin S] | readily soluble | insoluble | – | 0.3 (≈ 0.319 nM)
